“And” between values parts separate entries of the source, which are not always exact repeats. Identical values can stand only once. “Also recorded” adds a separate entry of the source. Like-named read-outs stand apart in the source and are kept apart here.
Legend:
ROS1 kinase = ROS1 kinase (Homo sapiens, UniProt P08922); experiment: ROS1 kinase assays; assay type: biochemical; set-up: Recombinant human ROS1 kinase (residues 1883-2347), containing an N-terminal GST tag; purchased SignalChem; host or cells: Sf9 insect cells (baculovirus)
bovine TrxR = target: T1, bovine TrxR (Bos taurus, UniProt O62768); experiment: NADPH oxidation assay, Reaction A (TrxR alone); assay type: biochemical; conditions: without Trx, disulfide 0.5 mM
T1 construct: purchased American Diagnostica
Experimental: See, Luthman M and Holmgren A. Rat liver thioredoxin and thioredoxin reductase: purification and characterization. Biochemistry 21:6628-6633 (1982). A typical assay mixture contained buffer (50 mM potassium phosphate, pH 7.0, 1 mM EDTA), NADPH (200 μM), and bovine TrxR (1.6 μg, 0.138 μM). Assays were run with and without recombinant human Trx (4.8 μM). […] All disulfides were added to reactions as 10x solutions in buffer. The total volume of each reaction was 0.1 mL. Reactions were initiated by the addition of TrxR and were incubated at 25° C. for 40 minutes. Reactions were analyzed using a Molecular Devices SpectraMax Plus UV/vis plate reader and the activity was calculated using a 4 minute linear portion of each assay.

WT EGFR kinase = WT EGFR kinase (Homo sapiens, UniProt P00533); experiment: WT EGFR kinase assay (ADP-glo)
[1] = cited from earlier work
Human Grx = target: T2, Human Grx (Homo sapiens, UniProt P35754); experiment: MS and crystal structure of Grx with Tavocept-derived mesna adducts; assay type: binding
T2 construct: 6xHis (TEV-cleavable) (N, cleaved yes); made in house; host or cells: E. coli BL21 (RIPL)

Recombinant human ERCC1 = target: T3, Recombinant human ERCC1 (Homo sapiens, UniProt P07992); experiment: Tavocept-derived mesna adducts on ERCC1 (trypsin digest, LC-MS); assay type: binding; conditions: 20 mM Tavocept, LC-MS of tryptic fragments
T3 construct: 6xHis (N); purchased Creative BioMart; host or cells: E. coli
Experimental: Recombinant human ERCC1 (1 mg; 27.8 nanomoles, Creative BioMart) was reduced using a vast excess of dithiothreitol (DTT, 100 μL of a 500 mM stock) in ammonium bicarbonate (40 mM, pH 8.0) at 37° C. for 75 minutes (total reaction volume was 900 μL). […] Each 800 μL reaction was then chromatographed over a NAP10 column. This step removed unreacted Tavocept and was used for the buffer control simply to ensure that both samples received the same handling/manipulation during the course of the experiment. The elution volume from each NAP10 column was 1.2 mL. […] Trypsin digestion reactions were incubated for 1 hour at 30° C. and then for 17 hours at room temperature (23° C.). Following the Trypsin digest, the samples were lyophilized to dryness overnight and then resuspended in a volume of approximately 100 μL water and analyzed using LC-MS. A Symmetry C18 HPLC column (Waters, Franklin, Mass.; 3.5 μm; 4.6 mm×75 mm) and a Waters Alliance liquid chromatography system (Waters 2695, Franklin, Mass., USA) coupled to a Micromass single quadropole mass detector (Micromass ZMD, Manchester, UK) were used to analyze fragments from trypsin-digested human ERCC1. The mobile phase contained 0.1% of formic acid throughout the run and the flow rate was 0.35 mL/min. […]

[2] = read-out: inhibition of WT EGFR kinase activity

Sequence of WT EGFR kinase (P00533 25-1210): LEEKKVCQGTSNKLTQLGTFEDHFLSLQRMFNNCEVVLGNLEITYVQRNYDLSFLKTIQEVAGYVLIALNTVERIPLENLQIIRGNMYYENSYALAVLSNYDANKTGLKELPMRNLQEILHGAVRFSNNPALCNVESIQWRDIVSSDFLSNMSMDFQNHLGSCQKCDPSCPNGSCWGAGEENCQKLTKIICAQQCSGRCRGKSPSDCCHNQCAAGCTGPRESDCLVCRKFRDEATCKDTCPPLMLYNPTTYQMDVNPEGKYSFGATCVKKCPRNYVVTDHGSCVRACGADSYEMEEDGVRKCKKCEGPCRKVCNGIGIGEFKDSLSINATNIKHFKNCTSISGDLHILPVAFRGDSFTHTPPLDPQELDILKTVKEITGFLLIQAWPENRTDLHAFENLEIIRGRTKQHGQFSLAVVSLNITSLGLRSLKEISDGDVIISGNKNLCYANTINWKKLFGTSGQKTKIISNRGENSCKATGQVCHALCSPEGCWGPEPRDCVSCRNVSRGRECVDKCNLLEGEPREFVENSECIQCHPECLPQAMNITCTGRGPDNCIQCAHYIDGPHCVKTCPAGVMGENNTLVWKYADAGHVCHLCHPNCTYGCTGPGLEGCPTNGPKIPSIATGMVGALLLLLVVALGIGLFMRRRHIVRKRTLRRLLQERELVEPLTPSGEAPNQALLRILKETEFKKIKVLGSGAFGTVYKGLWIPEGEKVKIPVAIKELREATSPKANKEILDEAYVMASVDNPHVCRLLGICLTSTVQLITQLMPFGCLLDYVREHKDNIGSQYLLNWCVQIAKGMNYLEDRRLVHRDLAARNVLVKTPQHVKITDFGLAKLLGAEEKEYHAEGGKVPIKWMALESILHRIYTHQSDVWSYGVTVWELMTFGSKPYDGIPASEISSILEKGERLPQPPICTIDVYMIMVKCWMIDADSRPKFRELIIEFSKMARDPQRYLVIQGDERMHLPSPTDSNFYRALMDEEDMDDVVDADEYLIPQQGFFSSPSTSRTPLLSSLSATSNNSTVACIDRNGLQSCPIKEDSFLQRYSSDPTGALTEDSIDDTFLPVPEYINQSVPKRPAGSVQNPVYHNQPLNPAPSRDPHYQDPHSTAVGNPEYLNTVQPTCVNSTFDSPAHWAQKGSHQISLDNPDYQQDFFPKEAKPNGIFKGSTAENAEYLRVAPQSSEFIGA
Sequence of ROS1 kinase (P08922 1883-2347): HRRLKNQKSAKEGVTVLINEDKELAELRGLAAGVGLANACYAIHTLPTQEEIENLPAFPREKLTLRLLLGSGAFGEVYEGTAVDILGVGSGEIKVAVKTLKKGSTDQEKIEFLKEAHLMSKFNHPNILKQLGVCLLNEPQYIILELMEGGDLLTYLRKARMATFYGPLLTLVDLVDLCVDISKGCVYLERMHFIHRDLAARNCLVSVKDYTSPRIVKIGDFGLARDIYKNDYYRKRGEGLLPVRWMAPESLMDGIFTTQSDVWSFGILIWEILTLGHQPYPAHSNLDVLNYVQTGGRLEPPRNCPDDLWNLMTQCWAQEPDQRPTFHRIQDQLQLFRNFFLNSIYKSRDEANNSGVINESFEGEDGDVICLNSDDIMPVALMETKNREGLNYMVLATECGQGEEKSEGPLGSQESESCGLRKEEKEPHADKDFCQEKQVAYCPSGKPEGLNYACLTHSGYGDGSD
T2 sequence (P35754 whole entry): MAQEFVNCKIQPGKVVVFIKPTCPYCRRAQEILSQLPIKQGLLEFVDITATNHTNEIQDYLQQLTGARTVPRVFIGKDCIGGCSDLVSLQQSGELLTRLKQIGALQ
T3 sequence (P07992 whole entry, the tested form may be a part): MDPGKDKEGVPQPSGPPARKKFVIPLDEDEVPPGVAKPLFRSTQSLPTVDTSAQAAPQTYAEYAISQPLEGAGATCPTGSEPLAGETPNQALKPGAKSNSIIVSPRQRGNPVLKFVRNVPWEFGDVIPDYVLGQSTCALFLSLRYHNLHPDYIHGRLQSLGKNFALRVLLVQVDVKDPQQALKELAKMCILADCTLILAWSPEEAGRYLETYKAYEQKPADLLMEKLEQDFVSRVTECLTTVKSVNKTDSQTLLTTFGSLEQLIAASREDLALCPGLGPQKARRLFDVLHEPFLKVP
T1 sequence (O62768 whole entry): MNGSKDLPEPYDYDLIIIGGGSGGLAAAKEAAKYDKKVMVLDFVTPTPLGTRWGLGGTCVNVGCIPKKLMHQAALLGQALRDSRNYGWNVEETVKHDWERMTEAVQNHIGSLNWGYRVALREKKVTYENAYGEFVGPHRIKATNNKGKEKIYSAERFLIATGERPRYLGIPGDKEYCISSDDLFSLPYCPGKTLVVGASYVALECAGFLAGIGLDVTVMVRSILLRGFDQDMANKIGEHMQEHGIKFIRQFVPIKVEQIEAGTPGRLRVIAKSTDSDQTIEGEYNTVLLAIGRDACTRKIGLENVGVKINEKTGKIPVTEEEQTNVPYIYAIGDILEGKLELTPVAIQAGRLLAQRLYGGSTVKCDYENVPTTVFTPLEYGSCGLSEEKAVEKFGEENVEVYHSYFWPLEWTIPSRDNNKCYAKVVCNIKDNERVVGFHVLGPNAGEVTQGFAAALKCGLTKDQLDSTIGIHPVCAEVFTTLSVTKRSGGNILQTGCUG

## O=S(=O)([O-])CCSSCCS(=O)(=O)[O-].[Na+].[Na+] [Tavocept, disodium 2,2′-dithio-bis-ethane sulfonate]
ROS1 kinase
  Inhibition of ROS1 kinase: directly inhibit ROS1 kinase in a time-dependent manner
ROS1 kinase; Tavocept incubated with ROS1 kinase prior to initiation of the kinase assays
  Effect on Crizotinib inhibition of ROS1 kinase: potentiation of Crizotinib inhibition
ROS1 kinase; time dependent
  Modification of ROS1 kinase: BNP7787 xenobiotically modifies ROS1 kinase in
Bovine TrxR
  Reduction of disulfide by TrxR alone: did not detectably reduce
WT EGFR kinase; 10 μM ATP
  potentiation of Erlotinib inhibition of WT EGFR kinase activity: slightly potentiated
WT EGFR kinase; 100 μM ATP, physiological concentrations (<20 mM)
  inhibition of WT EGFR kinase: did not notably inhibit
WT EGFR kinase; IC50 on WT EGFR kinase activity, 10 μM ATP
  IC50: 24.3 ± 3.7 mM
WT EGFR kinase; IC50 on WT EGFR kinase activity, 100 μM ATP
  IC50: ≥ 40 mM
WT EGFR kinase; read-out: IC50 on WT EGFR kinase activity, 10 μM ATP
  IC50: 24.3 mM
WT EGFR kinase; [2]
  inhibition at 10000 µM: 39%
  inhibition at 20000 µM: 44%
[1]; 41 g/m^2 Tavocept
  Tavocept in plasma: ~14 mM
[1]; as high as
  concentrations achieved in the clinic: ≤ 18000 µM
[1]; doses of 18.4 g/m^2 and higher
  plasma levels pharmacologically achievable: ≥ 8 mM
[1]; in vivo
  pharmacologically achievable concentrations: 6-10 mM
  plasma concentrations achieved in clinical trials: 10000 µM
[1]; read-out: Cmax values in plasma, typical, doses as high as 41 g/m^2
  Cmax: 10000 µM
[1]; read-out: Cmax values in plasma, dose of 18.4 g/m^2
  Cmax: ≥ 10000 µM and 10000 µM
[1]; read-out: typical Cmax values, administered at 18 g/m^2
  Cmax: 10000 µM
Human Grx; Mass Spectrum
  number of Tavocept-derived mesna adducts on Human Grx: two
Human Grx; atomic resolution map
  Grx cysteines with Tavocept-derived mesna adduct: Cys7 (Panel A) and Cys82
Recombinant human ERCC1
  ERCC1 cysteine xenobiotically modified: Cys238; also recorded: Cys274

— patent publication US20160106439A1, “PNEUMATIC TOURNIQUET” (BIONUMERIK PHARMACEUTICALS, INC., priority 2013, published 2016)
